Common to all, as to assay type: in vivo
The subject of test [1] is Plasmopara viticola. Kind of test: Controlling effect against grape downy mildew (leaf disk immersion, 250 ppm). Particulars: grape leaf disk immersed 3 hours, 10th day after inoculation, untreated 60 to 70%. As for the experimental part:
The developed leaf of grape seedling (breed: Cabernet Sauvignon) grown in 1/2000 a pot was cut and prepared a leaf disk having a diameter of 32 mm. A solution of the compound in acetone was diluted with water to 250 ppm, and the leaf disk was immersed for 3 hours. The disk was taken from the agent solution, subjected to air-drying, and then inoculated by spray with a zoosporangia suspension of Plasmopara viticola. The test disk was incubated at 18° C. for 12 hours in a light-dark light cycle. On the 10th day after inoculation the infected area rate for the leaf disk was examined. Evaluation was carried out by the following criteria. The infected area rate for the untreated groups in the examination was 60 to 70%.

The test system of test [2] is Pseudoperonospora cubensis. The test can be described thus: Controlling effect against cucumber downy mildew (spray on cucumber seedlings, 250 ppm). Particulars: 250 ppm spray, cucumber seedling 1-leaf stage, 7th day after inoculation; untreated 60 to 80%. As for the experimental part:
A solution of the compound in acetone was diluted with water to 250 ppm, and the solution was sprayed to the cucumber seedling (breed: Sagamihangbak, two per plastic pot having a diameter of 7.5 cm) at 1-leaf stage in an amount of 10 mL of the compound/pot. After air-drying, the pot was transferred to a moist chamber provided in the greenhouse, and inoculated by spray with a zoosporic suspension of Pseudoperonospora cubensis. On the 7th day after inoculation the infected area rate for the leaves was examined. Evaluation was carried out by the following criteria.
The infected area rate for untreated groups in the examination was 60 to 80%.

In test [3] the test system is Phytophthora infestans. As to conditions: 250 ppm spray, tomato seedling 4-leaf stage, 4th day after inoculation; untreated not less than 60%.

These results are taken from patent US20070244153A1 (priority 2004, published 2007).

Consider `CC(C)OC(=O)N[C@H](C(=O)N[C@H](CNC(=O)c1cc2ccccc2o1)C(C)C)C(C)C` [Compound No. 775, N-[2-methyl-1-(S)-[[(benzofuran-2-carbonyl)amino]methyl]propyl][3-methyl-2-(S)-[N-(1-methylethyloxycarbonyl)amino]]butyramide], for which the “Effect: controlling effect against grape downy mildew (infected area rate)” value in test [1] is listed as “A (the infected area rate of less than 5%)”. For the same compound, the “Effect: controlling effect against cucumber downy mildew (infected area rate)” value in test [2] is “A (the infected area rate of less than 5%)”. Further, the “Effect: controlling effect against tomato late blight (infected area rate)” value in test [3] is recorded as “A (Infected area rate of less than 5%)”.

For `Cc1ccc(C(=O)NC[C@@H](NC(=O)C(NC(=O)OC(C)(C)C)C2CCOC2)C(C)C)cc1` (mixture of isomers) [Compound No. 69, N-[2-methyl-1-(S)-[[(4-methylbenzoyl)amino]methyl]propyl]2-(RS)-[(1,1-dimethylethyloxycarbonyl)amino]-2-(tetrahydrofuran-3-yl)acetamide], in test [1], the “Effect: controlling effect against grape downy mildew (infected area rate)” value is “B (the infected area rate of 5% to less than 50%)”. In addition, the “Effect: controlling effect against cucumber downy mildew (infected area rate)” value in test [2] was “A (the infected area rate of less than 5%)”. In addition, in test [3], the “Effect: controlling effect against tomato late blight (infected area rate)” value was “A (Infected area rate of less than 5%)”.

Take `Cc1ccccc1C(=O)NC[C@@H](NC(=O)[C@@H](NC(=O)OC(C)C)C(C)C)C(C)C` [Compound No. 143, N-[2-methyl-1-(S)-[[(2-methylbenzoyl)amino]methyl]propyl]3-methyl-2-(S)-[(1-methylethyloxycarbonyl)amino]butyramide]: the “Effect: controlling effect against cucumber downy mildew (infected area rate)” value in test [2] was “B (the infected area rate of 5% to less than 50%)”. Besides, the “Effect: controlling effect against tomato late blight (infected area rate)” value in test [3] is recorded as “A (Infected area rate of less than 5%)”.

Take `Cc1ccc(C(=O)N[C@@H](CNC(=O)[C@@H](NC(=O)OCC(C)C)C(C)C)C(C)C)cc1` [Compound No. 274, N-[3-methyl-2-(R)-[(4-methylbenzoyl)amino]butyl]3-methyl-2-(S)-[(2-methylpropyloxycarbonyl)amino]butyramide]: the “Effect: controlling effect against cucumber downy mildew (infected area rate)” value in test [2] is “B (the infected area rate of 5% to less than 50%)”. In test [3], the “Effect: controlling effect against tomato late blight (infected area rate)” value is “A (Infected area rate of less than 5%)”.

On to `CCC[C@H](NC(=O)OC(C)(C)C)C(=O)N[C@H](CNC(=O)c1ccc(C)cc1)C(C)C` [compound 40, N-[2-methyl-1-(S)-[[(4-methylbenzoyl)amino]methyl]propyl]2-(S)-[(1,1-dimethylethyloxycarbonyl)amino]valeramide], for which the “Effect: controlling effect against grape downy mildew (infected area rate)” value in test [1] is on record as “A (the infected area rate of less than 5%)”. Further, the “Effect: controlling effect against cucumber downy mildew (infected area rate)” value in test [2] is recorded as “A (the infected area rate of less than 5%)”. In test [3], the “Effect: controlling effect against tomato late blight (infected area rate)” value is on record as “A (Infected area rate of less than 5%)”.

`Cc1ccc(C(=O)N[C@H](CNC(=O)[C@@H](NC(=O)OCc2ccccc2)C(C)C)C(C)C)cc1` [Compound No. 281, N-[3-methyl-2-(S)-[(4-methylbenzoyl)amino]butyl]2-(S)-[(benzyloxycarbonyl)amino]-3-methylbutyramide]: the “Effect: controlling effect against cucumber downy mildew (infected area rate)” value in test [2] was “B (the infected area rate of 5% to less than 50%)”. For the same compound, in test [3], the “Effect: controlling effect against tomato late blight (infected area rate)” value is on record as “B (Infected area rate of 5% to less than 50%)”.

On to `CCOC(=O)N[C@H](C(=O)N[C@H](CNC(=O)c1cc2ccccc2o1)C(C)C)C(C)C` [Compound No. 772, N-[2-methyl-1-(S)-[[(benzofuran-2-carbonyl)amino]methyl]propyl][3-methyl-2-(S)-[N-(ethyloxycarbonyl)amino]]butyramide], for which, in test [1], the “Effect: controlling effect against grape downy mildew (infected area rate)” value was “A (the infected area rate of less than 5%)”. The “Effect: controlling effect against cucumber downy mildew (infected area rate)” value in test [2] was “A (the infected area rate of less than 5%)”. In test [3], the “Effect: controlling effect against tomato late blight (infected area rate)” value is “A (Infected area rate of less than 5%)”.

In the case of `Cc1ccc(C(=O)N[C@@H](CNC(=O)[C@@H](NC(=O)OCc2ccccc2)C(C)C)C(C)C)cc1` [Compound No. 276, N-[3-methyl-2-(R)-[(4-methylbenzoyl)amino]butyl]2-(S)-[(benzyloxycarbonyl)amino]-3-methylbutyramide], the “Effect: controlling effect against tomato late blight (infected area rate)” value in test [3] is listed as “B (Infected area rate of 5% to less than 50%)”.

In the case of `CC(C)[C@H](NC(=O)OCC1CCCO1)C(=O)N[C@H](CNC(=O)c1cc2ccccc2o1)C(C)C` (stereo partly drawn) [Compound No. 786, N-[1-(S)-[[(benzofuran-2-carbonyl)amino]methyl]-2-methylpropyl]3-methyl-2-(S)-[[(tetrahydrofuran-2-methyl)oxycarbonyl]amino]butyramide], the “Effect: controlling effect against cucumber downy mildew (infected area rate)” value in test [2] was “A (the infected area rate of less than 5%)”. Further, the “Effect: controlling effect against tomato late blight (infected area rate)” value in test [3] is “A (Infected area rate of less than 5%)”.

For the compound `CC[C@H](C)[C@@H](CNC(=O)c1ccc(C)cc1)NC(=O)[C@@H](NC(=O)OC)C(C)C` [Compound No. 306, N-[2-(S)-methyl-1-(S)-[[(4-methylbenzoyl)amino]methyl]butyl]3-methyl-2-(S)-[(methyloxycarbonyl)amino]butyramide], the “Effect: controlling effect against grape downy mildew (infected area rate)” value in test [1] is given as “A (the infected area rate of less than 5%)”. The “Effect: controlling effect against cucumber downy mildew (infected area rate)” value in test [2] was “A (the infected area rate of less than 5%)”. Also, the “Effect: controlling effect against tomato late blight (infected area rate)” value in test [3] is recorded as “A (Infected area rate of less than 5%)”.

As to `Cc1ccc(C(=O)NC[C@@H](NC(=O)[C@@H](NC(=O)OC(C)(C)C)c2ccccc2)C(C)C)cc1` [Compound No. 60, N-[2-methyl-1-(S)-[[(4-methylbenzoly)amino]methyl]propyl]2-(S)-[(1,1-dimethylethyloxycarbonyl)amino]-2-phenyl acetamide], the “Effect: controlling effect against tomato late blight (infected area rate)” value in test [3] is recorded as “B (Infected area rate of 5% to less than 50%)”.

For `CCOC(=O)N[C@H](C(=O)N[C@H](CNC(=O)c1cc2ccccc2o1)C(C)(C)C)C(C)C` [Compound No. 714, N-[1-(S)-[[(benzofuran-2-carbonyl)amino]methyl)-2,2-dimethylpropyl][3-methyl-2-(S)-[N-(ethyloxycarbonyl)amino]]butyramide], in test [1], the “Effect: controlling effect against grape downy mildew (infected area rate)” value is “A (the infected area rate of less than 5%)”. Further, the “Effect: controlling effect against cucumber downy mildew (infected area rate)” value in test [2] is “A (the infected area rate of less than 5%)”. Further, the “Effect: controlling effect against tomato late blight (infected area rate)” value in test [3] is given as “A (Infected area rate of less than 5%)”.

With `CC(C)OC(=O)N[C@H](C(=O)NC[C@@H](NC(=O)c1cc2ccccc2o1)C(C)C)C(C)C` [Compound No. 675, N-[[2-(S)-[(benzofuran-2-carbonyl)amino]-3-methyl]butyl][2-(S)-[(1-methylethyloxycarbonyl)amino]-3-methyl]butyramide], the “Effect: controlling effect against cucumber downy mildew (infected area rate)” value in test [2] is listed as “B (the infected area rate of 5% to less than 50%)”. Moreover, the “Effect: controlling effect against tomato late blight (infected area rate)” value in test [3] is “A (Infected area rate of less than 5%)”.

As for `CC(C)COC(=O)N[C@H](C(=O)N[C@H](CNC(=O)c1ccc(Cl)cc1)C(C)C)C(C)C` [Compound No. 205, N-[1-(S)-[[(4-chlorobenzoyl)amino]methyl]-2-methylpropyl]3-methyl-2-(S)-[(2-methylpropyloxycarbonyl)amino]butyramide], the “Effect: controlling effect against grape downy mildew (infected area rate)” value in test [1] was “B (the infected area rate of 5% to less than 50%)”. For the same compound, in test [2], the “Effect: controlling effect against cucumber downy mildew (infected area rate)” value is recorded as “A (the infected area rate of less than 5%)”. In addition, the “Effect: controlling effect against tomato late blight (infected area rate)” value in test [3] is reported as “A (Infected area rate of less than 5%)”.

Regarding `CC(C)OC(=O)N[C@H](C(=O)N[C@H](CNC(=O)C1COc2ccccc2O1)C(C)C)C(C)C` (mixture of isomers) [Compound No. 899, N-[2-methyl-1-(S)-[[[(1,4-benzodioxane)-2-(RS)-carbonyl]amino]methyl]propyl][3-methyl-2-(S)-[N-(1-methylethyloxycarbonyl)amino]]butyramide], the “Effect: controlling effect against grape downy mildew (infected area rate)” value in test [1] was “B (the infected area rate of 5% to less than 50%)”. Besides, the “Effect: controlling effect against cucumber downy mildew (infected area rate)” value in test [2] is reported as “A (the infected area rate of less than 5%)”. Further, in test [3], the “Effect: controlling effect against tomato late blight (infected area rate)” value is reported as “A (Infected area rate of less than 5%)”.

As to `Cc1ccc(C(=O)NCC(NC(=O)[C@@H](NC(=O)OC(C)C)C(C)C)C(C)C)cc1` (mixture of isomers) [Compound No. 151, N-[2-methyl-1-(RS)-[[(4-methylbenzoyl)amino]methyl]propyl]3-methyl-2-(S)-[(1-methylethyloxycarbonyl)amino]butyramide], in test [2], the “Effect: controlling effect against cucumber downy mildew (infected area rate)” value is listed as “B (the infected area rate of 5% to less than 50%)”. Further, the “Effect: controlling effect against tomato late blight (infected area rate)” value in test [3] is recorded as “A (Infected area rate of less than 5%)”.
